Residues, ends and D or L forms follow the SMILES beside them. No end group written: not given here.

In this assay the target is T1, ACE (from rabbit lung) (Oryctolagus cuniculus, UniProt P12822).
T1 construct: ACE (peptidyldipeptide hydrolase from rabbit lung acetone extract); purchased Sigma; host or cells: rabbit lung (acetone extract)
T1 sequence (P12822 34-1310): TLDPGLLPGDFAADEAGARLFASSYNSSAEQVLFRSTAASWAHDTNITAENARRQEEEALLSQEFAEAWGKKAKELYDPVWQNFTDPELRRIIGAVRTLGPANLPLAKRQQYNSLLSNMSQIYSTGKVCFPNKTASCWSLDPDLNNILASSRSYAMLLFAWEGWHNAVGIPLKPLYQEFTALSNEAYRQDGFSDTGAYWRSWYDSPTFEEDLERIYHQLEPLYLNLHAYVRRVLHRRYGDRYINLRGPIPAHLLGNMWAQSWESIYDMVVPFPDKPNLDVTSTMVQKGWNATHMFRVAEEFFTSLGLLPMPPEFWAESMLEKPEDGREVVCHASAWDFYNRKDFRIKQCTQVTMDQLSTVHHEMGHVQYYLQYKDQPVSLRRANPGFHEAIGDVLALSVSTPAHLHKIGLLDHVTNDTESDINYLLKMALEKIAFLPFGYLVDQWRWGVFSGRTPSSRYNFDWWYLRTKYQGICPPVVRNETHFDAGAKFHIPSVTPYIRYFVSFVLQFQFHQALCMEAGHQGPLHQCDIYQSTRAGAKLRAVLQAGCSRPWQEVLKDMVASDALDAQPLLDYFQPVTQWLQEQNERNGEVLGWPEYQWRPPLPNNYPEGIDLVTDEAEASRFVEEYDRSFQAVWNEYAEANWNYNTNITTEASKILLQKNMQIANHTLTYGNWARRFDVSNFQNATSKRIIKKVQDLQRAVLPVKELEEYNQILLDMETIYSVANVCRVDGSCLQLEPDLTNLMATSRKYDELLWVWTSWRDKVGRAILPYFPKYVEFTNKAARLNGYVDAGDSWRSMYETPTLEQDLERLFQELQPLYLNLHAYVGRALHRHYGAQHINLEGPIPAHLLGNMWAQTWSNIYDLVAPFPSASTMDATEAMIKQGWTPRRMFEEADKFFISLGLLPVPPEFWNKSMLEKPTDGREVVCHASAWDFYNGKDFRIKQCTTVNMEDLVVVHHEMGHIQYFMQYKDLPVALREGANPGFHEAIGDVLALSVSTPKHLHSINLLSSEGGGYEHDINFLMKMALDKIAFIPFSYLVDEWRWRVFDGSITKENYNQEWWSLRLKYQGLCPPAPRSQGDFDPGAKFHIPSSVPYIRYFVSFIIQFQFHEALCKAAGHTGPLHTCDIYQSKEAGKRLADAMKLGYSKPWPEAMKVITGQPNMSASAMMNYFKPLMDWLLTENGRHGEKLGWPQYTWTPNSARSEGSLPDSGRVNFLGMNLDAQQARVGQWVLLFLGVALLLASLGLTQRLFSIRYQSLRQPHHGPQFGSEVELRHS
Nature of the assay: ACE inhibitory activity, spectrophotometric method (HHL substrate, hippuric acid at 228 nm). The conditions noted are these: chemically synthesized peptides. Format: biochemical. The protocol:
ACE inhibitory activity determination was achieved using the spectrophotometric method described by Cushman and Cheung. For each assay, 100 μL of HHL (12.5 mM in 0.05 M sodium borate buffer) was incubated at 37°C for 5 min. After incubation, 50 μL of bovine peptide extracts and 150 μL of ACE (peptidyldipeptide hydrolase from rabbit lung acetone extract) were added and the mixture incubated for 1 h. The enzymatic reaction was stopped by adding 250 μL of 0.5 N HCl. The hippuric acid generated by the action of the angiotensin-converting enzyme on HHL was extracted from the acidified solution into 1 mL ethyl acetate by vortex mixing for 15 s. This was centrifuged at 3,290×g for 10 min at 4°C, and a 0.7 mL aliquot of each ethyl acetate layer was transferred to clean tubes and evaporated by heating at 95°C for 20 min in a water bath. The hippuric acid was redissolved in 3 mL of 1 M NaCl, and the amount formed was determined by absorbance at 228 nm. The IC50 value, defined as the concentration of a peptide that inhibits 50% of the ACE activity, was determined by measuring the ACE inhibitory activity and the peptide contents of each of the extracts after regression analysis. ACE inhibitory activity (%) was determined using the equation:
ACE inhibitory activity (%)=[1-(S-SC)/(B-BC)]×100
where S and B are optical density (OD) values for the sample and blank, respectively, and SC and BC are the OD values for the sample control and blank, respectively.
As for `CC(C)[C@H](N)C(=O)N[C@@H](CO)C(=O)N[C@@H](CO)C(=O)N[C@H](C(=O)O)C(C)C` [Val-Ser-Ser-Val] (H-VSSV-OH), the IC50 worked out at 8.49 mM. That is a millimolar value.

With `CC(C)C[C@H](N)C(=O)N[C@@H](CO)C(=O)N[C@@H](Cc1c[nH]c2ccccc12)C(=O)O` [Leu-Ser-Trp] (H-Leu-Ser-Trp-OH), the 50% inhibitory concentration (IC50) came to 0.89 mM. With `N[C@@H](Cc1ccc(O)cc1)C(=O)N[C@@H](Cc1ccc(O)cc1)C(=O)O` [Tyr-Tyr] (H-Tyr-Tyr-OH) the figure was 8.6 mM; with `N[C@@H](Cc1ccc(O)cc1)C(=O)NCC(=O)O` [Tyr-Gly], 12.7 mM; with `NC(=O)C[C@H](NC(=O)[C@H](Cc1ccccc1)NC(=O)[C@@H](N)Cc1ccc(O)cc1)C(=O)N[C@@H](CCC(=O)O)C(=O)O` [Tyr-Phe-Asn-Glu] (H-YFNE-OH), 7.62 mM. With `CSCC[C@H](N)C(=O)N[C@@H](C)C(=O)N[C@@H](CC(=O)O)C(=O)N[C@@H](C)C(=O)O` [Met-Ala-Asp-Ala] (H-MADA-OH) the figure was 5.92 mM. On to `N=C(N)NCCC[C@H](NC(=O)[C@@H](N)Cc1ccc(O)cc1)C(=O)N[C@@H](CCC(N)=O)C(=O)O` [Tyr-Arg-Gln] (H-Tyr-Arg-Gln-OH), for which the IC50 amounted to 3.09 mM. Compared with the last compound, the IC50 is about 1.9-fold lower. The compound QPSGSQ [Gln-Pro-Ser-Gly-Ser-Gln] registered a 50% inhibitory concentration (IC50) of 8.78 mM. As for `N[C@@H](Cc1ccccc1)C(=O)NCC(=O)N[C@@H](Cc1ccc(O)cc1)C(=O)O` [Phe-Gly-Tyr] (H-Phe-Gly-Tyr-OH), the figure is 2.69 mM; as for LWHHT [Leu-Trp-His- His-Thr], 5.21 mM.

By IC50 is commonly meant the concentration that gives 50% inhibition.

(Values after article PMC6409468, “Isolation and identification of angiotensin I-converting enzyme inhibitory peptides derived from thermolysin-injected beef M. longissimus” (Asian-Australasian Journal of Animal Sciences, 2018).)
